{"source": "patent US6300327A", "about": "“Compositions and methods for potentiation of neurotrophin activity” (The University of Southern California, priority 1997, dated 2001)", "key": {"Cytotoxicity in vitro": {"experiment": "Cytotoxicity in vitro", "format": "cell-based"}, "protein kinase C": {"target": "protein kinase C", "conditions": "in vitro assay systems; cited from earlier work"}, "trk [1]": {"test_system": "trk", "experiment": "trk tyrosine phosphorylation in PC12 cells (immunoprecipitation, anti-phosphotyrosine immunoblot)", "format": "cell-based", "description": "To measure the status of trk tyrosine phosphorylation, PC12 cells were lysed and immunoprecipitated with anti-trk serum. The trk proteins were subjected to 7.5% SDS-PAGE and analyzed by immunoblotting with anti-phosphotyrosine antibodies as described in detail in the literature [Kaplan, D. R. et al., \"PDGF beta receptor stimulates tyrosine phosphorylation of GAP and association of GAP with a signaling complex,\" Cell 61:125-133 (1990)]. Tyrosine phosphorylation of cellular proteins was assayed by probing Western blots of lysates of PC12 cells incubated with K-252b and NT-3 or NGF with anti-phosphotyrosine antibodies. Phospholipase C gammal was identified in these blots as described elsewhere [Vetter, M.L. et al., \"Nerve growth factor rapidly stimulates tyrosine phosphorylation of phospholipase C-gammal by a kinase activity associated with the product of trk protooncogene,\" Proc. Natl Acad. Sci. USA 88:5650-5654 (1991)].\nExperiments on PC12 cells confirmed observations made on primary neuron cultures. Treatment with K-252b stimulated NT-3 induced neurite outgrowth and trk tyrosine phosphorylation in PC12 cells while inhibiting NGF induced effects. PC12 cells were incubated for 48 hours with K-252b (50 nM) and NT-3 or NGF (50 ng/ml). FIG. 4A illustrates the % cells with neurites after 48 hours incubation. Neurites were scored if they were a length of one cell body or more. PC12 cells were subsequently lysed and immunoprecipitated with anti-trk serum. trk proteins were subjected to SDS-PAGE and analyzed by immunoblotting with anti-phosphotyrosine antibodies (FIG. 4B). Lane 1, NT-3 +K-252b; lane 2, NT-3; lane 3, NGF +K-252b; lane 4, NGF. For FIG. 4C, PC12 cells were incubated for 1 hour in K-252b (50 nM or 10 μM) and with NT-3 or NGF for 5 minutes prior to lysis; other methods were the same as described for FIG. 4B. Lane 1, NT-3+10 μM K-252b; lane 2, NT-3±50 nM K-252b; lane 3, NT-3; lane 4, NGF+10 μM K-252b; lane 5, NGF+50 nM K-252b; lane 6, NGF; lane 7, untreated control."}, "trk [2]": {"test_system": "trk", "experiment": "Cell-free tyrosine phosphorylation of recombinant human trk expressed in Sf9 insect cells", "format": "biochemical", "conditions": "10 μM K-252b", "description": "Human trk and trkB were expressed in Sf9 insect cells transfected using a baculovirus system. The trk proteins were immunoprecipitated as described above and the precipitates were incubated with 20 μCi [gamma-^32 P]ATP, 10 mM MnCl2, 20 mM Tris, pH 7.4, for 5 min at 25° C. in the presence of increasing amounts of K-252b or control solution. Phosphorylated proteins were analyzed as described for FIG. 4B. The tyrosine kinase activity of the trk and trkB proteins was activated in the absence of ligand, a common observation for receptor tyrosine kinase produced in the baculovirus system. The trk and trkB proteins were 25% pure as assayed by SDS-PAGE.\nK-252b interacts directly with the trk and trkB protein. Human trk and trkB were expressed in Sf9 insect cells transfected using a baculovirus system. trk proteins were immunoprecipitated and the precipitates were incubated with [gamma^32 P]ATP in the presence of increasing amounts of K-252b or control solution."}, "neurotrophin activity": {"test_system": "neurotrophin activity", "experiment": "Neurotrophin potentiation in vitro (overall statements)", "format": "cell-based"}}, "note": "“Also recorded” adds a separate entry of the source."}
{"smiles": "CC12OC(CC1(O)C(=O)O)n1c3ccccc3c3c4c(c5c6ccccc6n2c5c31)CNC4=O", "note": "(stereo not drawn) [K-252b]", "values": [{"measurement": "cytotoxicity", "setting": "Cytotoxicity in vitro", "value": "lacked cytotoxicity; also recorded: non-toxic"}, {"measurement": "Ki", "setting": "protein kinase C", "value": "10 to 100", "unit": "nM"}, {"measurement": "trk tyrosine phosphorylation with NT-3", "setting": "trk [1]; 50 nM K-252b + NT-3, 48 hours", "value": "clear increase"}, {"measurement": "effect on NGF-induced trk phosphorylation", "setting": "trk [1]; 10 μM K-252b, 1 hour, then NGF 5 minutes", "value": "partially inhibited"}, {"measurement": "trk tyrosine phosphorylation with NT-3", "setting": "trk [1]; 1 hour K-252b followed by 5 minutes NT-3", "value": "greatly enhanced"}, {"measurement": "trk tyrosine phosphorylation, inhibitor alone without NT-3", "setting": "trk [1]; K-252b alone", "value": "identical to untreated controls"}, {"measurement": "effect on trk tyrosine phosphorylation, cell-free system", "setting": "trk [2]", "value": "completely prevented"}, {"measurement": "effect on actions of NT-3", "setting": "neurotrophin activity; nM concentrations", "value": "selectively potentiates"}, {"measurement": "effect on actions of all neurotrophins", "setting": "neurotrophin activity; μM concentrations", "value": "inhibits the actions of all neurotrophins"}]}
